From ChEMBL document CHEMBL1201862, “PubChem BioAssay data set” (2004)
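Following 48 hours of exposure in 96-well plates, responses at five concentrations were used to interpolate endpoints linearly. Here, GI50 denotes the concentration required for 50% inhibition of growth.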 Active and inactive are the calls of the source. Rule as the data show it: active = GI50 up to about 1.1 µM and inactive = higher.

Experiments:
Experiment in all cases: NCI tumour cell line growth inhibition, 48 h
SK-MEL-5 = system: SK-MEL-5
786-0 = system: 786-0
A498 = system: A498
KM12 = system: KM12
HCT-15 = system: HCT-15
Malme-3M = system: Malme-3M
MOLT-4 = system: MOLT-4
UO-31 = system: UO-31
SF-295 = system: SF-295
UACC-62 = system: UACC-62
SK-MEL-2 = system: SK-MEL-2
M14 = system: M14
ACHN = system: ACHN
RXF 393 = system: RXF 393
CCRF-CEM = system: CCRF-CEM
HT-29 = system: HT-29
SNB-19 = system: SNB-19
HCC 2998 = system: HCC 2998
EKVX = system: EKVX
HL-60 = system: HL-60
SK-MEL-28 = system: SK-MEL-28
HCT-116 = system: HCT-116
HOP-18 = system: HOP-18
NCI-H460 = system: NCI-H460
NCI-H522 = system: NCI-H522
LXFL 529 = system: LXFL 529
SK-OV-3 = system: SK-OV-3
COLO 205 = system: COLO 205
M19-MEL = system: M19-MEL
K562 = system: K562
SW-620 = system: SW-620
CAKI-1 = system: CAKI-1
NCI-H226 = system: NCI-H226
DLD-1 = system: DLD-1
OVCAR-5 = system: OVCAR-5
DMS-273 = system: DMS-273
IGROV-1 = system: IGROV-1
KM-20L2 = system: KM-20L2
U-251 = system: U-251
SF-539 = system: SF-539
SR = system: SR
UACC-257 = system: UACC-257
RXF 631 = system: RXF 631
SF-268 = system: SF-268
SNB-78 = system: SNB-78
OVCAR-3 = system: OVCAR-3
A549 = system: A549
SN12C = system: SN12C
RPMI-8226 = system: RPMI-8226
DMS-114 = system: DMS-114
NCI-H23 = system: NCI-H23
LOX IMVI = system: LOX IMVI
OVCAR-4 = system: OVCAR-4
HOP-62 = system: HOP-62
TK-10 = system: TK-10
SNB-75 = system: SNB-75
OVCAR-8 = system: OVCAR-8
XF498 = system: XF498

With `N#CCCN(CCC#N)c1ccc(/C=C(/NC(=O)c2cc([N+](=O)[O-])ccc2Cl)C(=O)N=[N+]=[N-])cc1` the GI50 (SK-MEL-5) was > 100 µM (inactive), the GI50 (786-0) was > 100 µM (inactive) and the GI50 (A498) was > 100 µM (inactive). The GI50 (KM12) was > 100 µM (inactive), the GI50 (HCT-15) was > 100 µM and the GI50 (Malme-3M) was > 100 µM (inactive). For the same molecule, the GI50 (MOLT-4) was > 100 µM (inactive), the GI50 (UO-31) was > 100 µM (inactive) and the GI50 (SF-295) was > 100 µM (inactive). For the same molecule, the GI50 (UACC-62) was > 100 µM (inactive), the GI50 (SK-MEL-2) was > 100 µM (inactive) and the GI50 (M14) was > 100 µM (inactive). The GI50 (ACHN) was > 100 µM (inactive), the GI50 (RXF 393) was > 100 µM (inactive) and the GI50 (CCRF-CEM) was > 100 µM (inactive). The GI50 (HT-29) was > 100 µM (inactive), the GI50 (SNB-19) was > 100 µM (inactive) and the GI50 (HCC 2998) was > 100 µM (inactive). For the same molecule, the GI50 (EKVX) was > 100 µM (inactive), the GI50 (HL-60) was > 100 µM (inactive) and the GI50 (SK-MEL-28) was > 100 µM (inactive). The GI50 (HCT-116) was > 100 µM (inactive), the GI50 (HOP-18) was > 100 µM (inactive) and the GI50 (NCI-H460) was > 100 µM (inactive). The GI50 (NCI-H522) was > 100 µM (inactive), the GI50 (LXFL 529) was > 100 µM (inactive) and the GI50 (SK-OV-3) was > 100 µM (inactive). The GI50 (COLO 205) was > 100 µM (inactive), the GI50 (M19-MEL) was > 100 µM (inactive) and the GI50 (K562) was > 100 µM (inactive). For the same molecule, the GI50 (SW-620) was > 100 µM (inactive), the GI50 (CAKI-1) was > 100 µM (inactive) and the GI50 (NCI-H226) was > 100 µM (inactive). For the same molecule, the GI50 (DLD-1) was > 100 µM (inactive), the GI50 (OVCAR-5) was > 100 µM (inactive) and the GI50 (DMS-273) was > 100 µM (inactive). The GI50 (IGROV-1) was > 100 µM (inactive), the GI50 (KM-20L2) was > 100 µM (inactive) and the GI50 (U-251) was > 100 µM (inactive). For the same molecule, the GI50 (SF-539) was > 100 µM (inactive), the GI50 (SR) was > 100 µM (inactive) and the GI50 (UACC-257) was > 100 µM (inactive). The GI50 (RXF 631) was > 100 µM (inactive), the GI50 (SF-268) was > 100 µM (inactive) and the GI50 (SNB-78) was > 100 µM (inactive). The GI50 (OVCAR-3) was > 100 µM (inactive), the GI50 (A549) was > 100 µM (inactive) and the GI50 (SN12C) was > 100 µM (inactive). For the same molecule, the GI50 (RPMI-8226) was > 100 µM (inactive), the GI50 (DMS-114) was > 100 µM (inactive) and the GI50 (NCI-H23) was > 100 µM (inactive). The GI50 (LOX IMVI) was > 100 µM (inactive), the GI50 (OVCAR-4) was > 100 µM (inactive) and the GI50 (HOP-62) was > 100 µM (inactive). For the same molecule, the GI50 (TK-10) was > 100 µM (inactive), the GI50 (SNB-75) was > 100 µM (inactive) and the GI50 (OVCAR-8) was > 100 µM (inactive).

For `COc1ccc(/C=C/C(=O)c2sc(-n3nc(-c4ccccc4)cc3-c3ccccc3)nc2C)cc1OC`, the GI50 (786-0) was 36.4 µM (inactive), the GI50 (KM12) was 28.1 µM (inactive) and the GI50 (HCT-15) was 32.4 µM. The GI50 (Malme-3M) was 65.8 µM (inactive), the GI50 (MOLT-4) was 20.3 µM (inactive) and the GI50 (UO-31) was 42 µM (inactive). The GI50 (XF498) was 49.3 µM (inactive), the GI50 (SF-295) was 28.1 µM (inactive) and the GI50 (UACC-62) was 13.9 µM (inactive). The GI50 (SK-MEL-2) was 62.1 µM (inactive), the GI50 (M14) was 62.8 µM (inactive) and the GI50 (ACHN) was 49.8 µM (inactive). The GI50 (RXF 393) was 57.1 µM (inactive), the GI50 (CCRF-CEM) was 23.2 µM (inactive) and the GI50 (HT-29) was 30.1 µM (inactive). The GI50 (SNB-19) was 36.6 µM (inactive), the GI50 (HCC 2998) was 51.1 µM (inactive) and the GI50 (EKVX) was 26.1 µM (inactive). The GI50 (HL-60) was 25.2 µM (inactive), the GI50 (SK-MEL-28) was 37.9 µM (inactive) and the GI50 (HCT-116) was 31.3 µM (inactive). For the same molecule, the GI50 (HOP-18) was > 100 µM (inactive), the GI50 (NCI-H460) was 56.8 µM (inactive) and the GI50 (NCI-H522) was 19.5 µM (inactive). The GI50 (LXFL 529) was 30.3 µM (inactive), the GI50 (SK-OV-3) was > 100 µM (inactive) and the GI50 (COLO 205) was 36.6 µM (inactive). The GI50 (M19-MEL) was 42.4 µM (inactive), the GI50 (K562) was 23.6 µM (inactive) and the GI50 (SW-620) was 43.8 µM (inactive). The GI50 (CAKI-1) was 54.2 µM (inactive), the GI50 (NCI-H226) was 31.6 µM (inactive) and the GI50 (DLD-1) was 21.8 µM (inactive). For the same molecule, the GI50 (OVCAR-5) was 32.1 µM (inactive), the GI50 (DMS-273) was 36.6 µM (inactive) and the GI50 (IGROV-1) was 24.3 µM (inactive). For the same molecule, the GI50 (KM-20L2) was 20.9 µM (inactive), the GI50 (U-251) was 28.8 µM (inactive) and the GI50 (SF-539) was 26.7 µM (inactive). The GI50 (SR) was 24.9 µM (inactive), the GI50 (UACC-257) was 39.5 µM (inactive) and the GI50 (RXF 631) was 24.5 µM (inactive). The GI50 (SF-268) was 27.4 µM (inactive), the GI50 (OVCAR-3) was 20.6 µM (inactive) and the GI50 (A549) was 39.4 µM (inactive). The GI50 (SN12C) was 31.6 µM (inactive), the GI50 (RPMI-8226) was 22.1 µM (inactive) and the GI50 (DMS-114) was 28.1 µM (inactive). The GI50 (NCI-H23) was 34.9 µM (inactive), the GI50 (LOX IMVI) was 28.9 µM (inactive) and the GI50 (OVCAR-4) was 38.5 µM (inactive). The GI50 (HOP-62) was 57.1 µM (inactive), the GI50 (TK-10) was 62.5 µM (inactive) and the GI50 (OVCAR-8) was 31.4 µM (inactive).
